Results published in patent US20170239318A1, “COMPOSITONS AND METHODS FOR CARTILAGE DEFECT REPAIR USING A RHAMM-MIMETIC PEPTIDE” (New York University, priority 2014, published 2017).
Like-named read-outs stand apart in the source and are kept apart here.

Legend:
[1] = target: T1, recombinant RHAMM (Homo sapiens, UniProt O75330); conditions: cited from earlier work
T1 sequence (O75330 1-724): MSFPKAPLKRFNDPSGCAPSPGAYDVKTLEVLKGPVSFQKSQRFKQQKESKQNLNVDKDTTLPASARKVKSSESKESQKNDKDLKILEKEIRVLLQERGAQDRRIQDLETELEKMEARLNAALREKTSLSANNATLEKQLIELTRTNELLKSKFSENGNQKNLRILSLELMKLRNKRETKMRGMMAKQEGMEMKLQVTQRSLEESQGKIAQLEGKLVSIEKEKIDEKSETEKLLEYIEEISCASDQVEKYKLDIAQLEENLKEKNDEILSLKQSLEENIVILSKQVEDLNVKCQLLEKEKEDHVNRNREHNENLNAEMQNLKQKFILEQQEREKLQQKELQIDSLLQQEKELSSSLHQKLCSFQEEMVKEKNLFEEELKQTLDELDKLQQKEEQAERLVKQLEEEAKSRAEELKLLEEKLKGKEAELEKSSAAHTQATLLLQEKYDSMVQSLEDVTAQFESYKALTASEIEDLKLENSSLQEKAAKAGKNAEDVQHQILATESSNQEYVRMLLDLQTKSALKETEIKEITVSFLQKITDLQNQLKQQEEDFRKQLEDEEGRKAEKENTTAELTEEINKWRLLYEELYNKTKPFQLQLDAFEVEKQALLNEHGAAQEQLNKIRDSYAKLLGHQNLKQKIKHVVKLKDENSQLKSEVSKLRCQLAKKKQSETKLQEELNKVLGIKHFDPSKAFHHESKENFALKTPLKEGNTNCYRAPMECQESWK

[2] = system: serum-starved human articular chondrocytes; assay: mRNA levels of catabolic and articular cartilage markers in serum-starved human articular chondrocytes (real time PCR); type: cell-based; conditions: 48 h
Experimental: FIG. 6: RHAMM-mimetic peptide at concentrations up to 5 μg/ml decreased the mRNA levels of iNOS and MMP-13 (catabolic markers; A) and increased the mRNA levels of type II collagen (α1(II), articular cartilage marker, B) in serum-starved human articular chondrocytes. […] In addition, […] of peptide decreased the mRNA levels of type II collagen. Human articular chondrocytes after being serum-starved for 24 h were treated with RHAMM-mimetic peptide of SEQ ID NO:1 (Pep.) at various concentrations (0, 26, 52, 520, 1000, 5000 ng/ml) for 48 h. mRNA levels of iNOS, MMP-13, and type II collagen were determined by real time PCR using SYBR Green and normalized to the 18 S RNA. mRNA levels are expressed as relative units with the mRNA levels of untreated cells set as 1. Data are expressed as mean±SD from the results of three different cultures.
Chondrocyte Cultures. Human articular chondrocytes were isolated from articular cartilage samples obtained from patients (donor age range 48-67) undergoing total knee replacement surgery at NYU Hospital for Joint Diseases. Knee cartilage was harvested from regions with no macroscopically evident degeneration. The collection of tissue from patients undergoing knee replacement surgery was approved by the Institutional Regulatory Board (IRB) at NYU School of Medicine. Human chondrocytes were isolated from these cartilage samples and cultured as described by us previously (24). Before human chondrocyte cultures were treated with inflammatory stimulus (interleukin-1beta (IL-1β), chondrocyte cultures were switched to serum-free medium for 24 h followed by treatment with the inflammatory stimulus. Cells were treated with 10 ng/ml human recombinant IL-1β in phosphate-buffered saline (PBS)/0.1% BSA. In addition, serum-starved cells were treated with RHAMM-mimetic peptide at various concentrations, HMWHA (ORTHOVISC) at a concentration of 1000 μg/ml, and a combination at four different weight ratios (1:60, 1:30, 1:15, 1:8) of peptide and HMWHA. Cells were treated with these various agents for 24 or 48 h under serum-free conditions.
(§1) RT-PCR and Real-Time PCR Analysis. mRNA levels of catabolic markers (cyclooxygenase (Cox)-2, interleukin (IL)-6, inducible nitric oxide synthase (iNOS), matrix metalloproteinase (MMP)-13) and articular cartilage markers (aggrecan, type II collagen) were determined by real time PCR analysis as described by us previously (25, 26). Briefly, total RNA was isolated from chondrocyte cultures using the RNEASY minikit (Qiagen, Valencia, Calif.). One μg of total RNA was reverse transcribed by using an OMNISCRIPT RT kit (Qiagen). A 1:100 dilution of the resulting cDNA was used as the template to quantify the relative content of mRNA by real-time PCR (STEPONEPLUS™ System; Applied Biosystems, Foster City, Calif.) with the appropriate primers and SYBR Green. PCRs were performed with a SYBR Green PCR Master Mix kit (Applied Biosystems), at 95° C. for 10 min followed by 40 cycles at 95° C. for 15 s and 60° C. for 1 min, and 1 cycle at 95° C. for 15 s and 60° C. for 1 min. The 18 S RNA was amplified at the same time and used as an internal control. The cycle threshold values for 18 S RNA and the samples were measured and calculated by computer software.

[3] = system: SW982 synovial cell line; assay: mRNA levels of catabolic markers in IL-1β-treated SW982 synovial fibroblasts (real time PCR); type: cell-based; conditions: 52 ng/ml peptide, 10 ng/ml IL-1β, 24 h
Experimental: FIG. 9: RHAMM-mimetic peptide decreased the mRNA levels of catabolic markers (Cox-2, IL-6, MMP-13) in the SW982 synovial cell line. SW982 cells after being serum-starved for 24 h were treated with RHAMM-mimetic peptide of SEQ ID NO:1 (Pep) at a concentration of 52 ng/ml for 24 h. mRNA levels of Cox-2, IL-6 and MMP-13 were determined by real time PCR using SYBR Green and normalized to the 18 S RNA. mRNA levels are expressed as relative units with the mRNA levels of untreated cells set as 1. Data are expressed as mean±SD from the results of three different cultures.
The synovial fibroblast cell line SW982 was used between passage 3 and passage 7 and cultured in DMEM containing 10% fetal calf serum until the cells reached confluence. Cells were then serum-starved for 24 h and then treated with 10 ng/ml recombinant human IL-1β and 52 ng/ml RHAMM-mimetic peptide for 48 h.
as §1

[4] = system: IL-1β-treated human articular chondrocytes; assay: mRNA levels of Cox-2 and type II collagen in IL-1β-treated human articular chondrocytes (real time PCR); type: cell-based; conditions: peptide at concentrations up to 64 μg/ml (16, 32, 64), 10 ng/ml IL-1β, 24 h
Experimental: FIG. 8: RHAMM-mimetic peptide at concentrations (16, 32, 64 μg/ml) decreased the mRNA levels of Cox-2 (catabolic marker; A) and increased the mRNA levels of type II collagen (α1 (II), articular cartilage marker, B) in IL-1β-treated human articular chondrocytes. […] Data are expressed as mean±SD from three different cultures.
(§2) Chondrocyte Cultures. Human articular chondrocytes were isolated from articular cartilage samples obtained from patients (donor age range 48-67) undergoing total knee replacement surgery at NYU Hospital for Joint Diseases. Knee cartilage was harvested from regions with no macroscopically evident degeneration. […]
RT-PCR and Real-Time PCR Analysis. mRNA levels of catabolic markers (cyclooxygenase (Cox)-2, interleukin (IL)-6, inducible nitric oxide synthase (iNOS), matrix metalloproteinase (MMP)-13) and articular cartilage markers (aggrecan, type II collagen) were determined by real time PCR analysis as described by us previously (25, 26). […] A 1:100 dilution of the resulting cDNA was used as the template to quantify the relative content of mRNA by real-time PCR (STEPONEPLUS™ System; Applied Biosystems, Foster City, Calif.) with the appropriate primers and SYBR Green. […] The cycle threshold values for 18 S RNA and the samples were measured and calculated by computer software.

[5] = system: RHAMM over-expressing LR21 cells; assay: in vitro random motility assay (scratch wound, HA fragment-stimulated cell migration); type: cell-based; conditions: 50 μg/mL peptide with 500 ng/mL 30-mer HA fragments, 24 hours; relative to PBS control, p<0.05
Experimental: FIG. 2: Effect of peptide 15-1 on fibroblast migration, using an in vitro random motility assay. RHAMM over-expressing LR21 cells were plated on a fibronectin-coated surface in Dulbecco's Modified Eagles Medium (DMEM) with 10% fetal bovine serum (FBS). The following day medium was changed to DMEM with 1% FBS, 50 μg/ml peptide, 500 ng/ml 30-mer HA fragment. Random motility was measured microscopically. “Old P15-1” refers to a peptide batch that was used in previous experiments. As control (ctr), PBS was used instead of peptide.
Functional testing of peptide 15-1 using an in vitro random motility assay. The functional testing of peptide 15-1 using an in vitro random motility assay was done essentially as previously described (16). Briefly, RHAMM over-expressing LR21 cells were plated at 7×10^5 cells/well in fibronectin coated six-well plates using Dulbecco's modified Eagle's medium (DMEM) (Gibco BRL/Invitrogen, Carlsbad, Calif.) containing 10% fetal calf serum (FCS). Confluence of cell monolayers after 24 hours was between 80% and 90%. […] The number of cells that had migrated into the scratch wounds was quantified using NIH image processing software ImageJ as follows. A box adjusted to reach each opposing edge of the wound was placed over 3 randomly assigned parts of each scratch wound and the numbers of cells within the box were counted. […]

[6] = system: skin wound repair; conditions: cited from earlier work
[7] = system: full-thickness excisional rat wound; conditions: cited from earlier work
[8] = system: IL-1β-treated human articular chondrocytes; assay: HA released into the medium of IL-1β-treated human articular chondrocytes (ELSA); type: cell-based; conditions: 10 ng/ml IL-1β, 48 h
Experimental: FIG. 7: HA concentration in the medium of human articular chondrocytes is increased by IL-1β. A: RHAMM-mimetic peptide at a concentration of 0.026 μg/ml or 0.052 μg/ml (Pep0.026, Pep0.052) had no effect on the HA release into the medium of IL-1β-treated chondrocytes. […] Human articular chondrocytes were serum-starved for 24 h followed by treatment of these cells with 10 ng/ml IL-1β and various concentrations of the RHAMM-mimetic peptide for 48 h. HA released into the medium was measured by ELSA (ELISA-like) specific assay.
as §2, with “degeneration. The collection of tissue from patients undergoing knee replacement surgery was approved by the Institutional Regulatory Board (IRB) at NYU School of Medicine. Human chondrocytes were isolated from these cartilage samples and cultured as described by us previously (24).” for “degeneration.”
Analysis of HA concentration in Chondrocyte Culture Medium. […] Conditioned media (approximately 1 ml each sample) from chondrocyte cultures were stored frozen at −20° C. until analyzed. […]

[9] = all concentrations tested (0.026, 0.052, 0.520, 1, 5, 800 μg/ml), vs untreated cells
[10] = applied once to the wound, compared to scrambled, negative control peptide

For STMMSRSHKTRSHHV [RHAMM-mimetic peptide], the “binding of HA fragments to recombinant RHAMM” value [1] is given as “markedly reduced”, the “decrease of mRNA levels of the catabolic markers (iNOS, MMP-13)” value ([2]; 800 μg/ml compared with lower concentrations of the peptide) is given as “not as effective” and the “type II collagen mRNA level” value ([2]; 800 μg/ml, compared to untreated cells) is given as “decreased”. For the same sequence, the “MMP-13 mRNA levels” value [2, 9] was “decreased”, the “iNOS mRNA levels” value [2, 9] was “decreased” and the “type II collagen mRNA levels” value ([2]; concentrations up to 5 μg/ml, vs untreated cells) was “increased”. The “Cox-2 mRNA levels” value [3] was “markedly reduced”, the “IL-6 mRNA levels” value [3] was “markedly reduced” and the “MMP-13 mRNA levels” value [3] was “markedly reduced”. For the same sequence, the “Cox-2 mRNA levels” value [4] was “decreased”, the “type II collagen mRNA level” value [4] was “increased” and the “reduction in fibroblast migration (number of cells migrated into the scratch wounds)” value [5] was “statistically significant”. The wound repair ([6]; RHAMM−/− mice) was “not”, the wound repair ([6]; wild type mice) was “altered” and the scarless healing ([7]; applied once to a full-thickness excisional rat wound) was “promoted a form of scarless healing”. The blood vessel density [7, 10] was “reduced”, the fibroblast number [7, 10] was “reduced” and the macrophage number [7, 10] was “reduced”. The “type of healing / fibrosis” value ([7]; excisional skin wounds, rat model) was “regenerative type of healing with reduced fibrosis”, the “HA concentration in conditioned medium (increase caused by IL-1β)” value ([8]; peptide 26 ng/ml or 52 ng/ml) was “little effect” and the “HA concentration in conditioned medium (increase caused by IL-1β)” value ([8]; peptide 17 μg/ml) was “significantly reduced”.
